{"source": "ChEMBL document CHEMBL1132070", "about": "“Piperidinyl-3-phosphinic acids as novel uptake inhibitors of the neurotransmitter gamma-aminobutyric acid (GABA)” (Bioorg Med Chem Lett, 1999)", "note": "pIC50: −log10 of the molar value.", "data": [{"species": "Rattus norvegicus", "experiment": "Inhibition of [3H]GABA (gamma amino butyric acid) uptake in vitro in rat brain synaptosomes", "type": "functional", "values": [{"smiles": "O=[PH](O)C1CCCNC1", "note": "(stereo not given)", "pIC50": 4.62}, {"smiles": "CP(=O)(O)C1CCCNC1", "note": "(stereo not given)", "pIC50": "< 3.00"}, {"smiles": "O=[PH](O)C1CCCN(CCC=C(c2ccccc2)c2ccccc2)C1", "note": "(stereo not given)", "pIC50": 4.28}, {"smiles": "O=C(O)C1CCCN(CCC=C(c2ccccc2)c2ccccc2)C1", "note": "(stereo not given)", "pIC50": 7.00}, {"smiles": "O=C(O)C1CCCNC1", "note": "(stereo not given) [NIPECOTIC ACID]", "pIC50": 5.40}]}]}
